# Measured values taken from paper PMC6149922, “2-Substituted Aniline as a Simple Scaffold for LuxR-Regulated QS Modulation” (Molecules : A Journal of Synthetic Chemistry and Natural …, 2017).
# Target: T1, LuxR (Aliivibrio fischeri, UniProt P12746)
# T1 sequence (P12746 1-250): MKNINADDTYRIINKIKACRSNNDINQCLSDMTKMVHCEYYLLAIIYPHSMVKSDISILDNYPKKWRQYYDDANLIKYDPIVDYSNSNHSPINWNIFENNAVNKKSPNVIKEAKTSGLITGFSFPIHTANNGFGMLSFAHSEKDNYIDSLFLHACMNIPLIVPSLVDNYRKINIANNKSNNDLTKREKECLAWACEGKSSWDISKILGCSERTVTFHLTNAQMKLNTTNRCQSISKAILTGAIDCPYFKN
# Assay: antagonism of […] 3-oxo-C6-HSL-induced bioluminescence, recombinant E. coli NM522 pSB401 LuxR biosensor
# Type: cell-based
row,SMILES,IC50
1,"CCCC(=O)Nc1ccccc1[N+](=O)[O-] [compound 1, N-(2-nitrophenyl)butanamide]",58 µM
2,"CCCCCC(=O)Nc1ccccc1 [compound 12, N-Phenylhexanamide]",79 µM
3,"CCCCCC(=O)Nc1ccccc1[N+](=O)[O-] [compound 2, N-(2-nitrophenyl)hexanamide]",94 µM
